In a melting point compilation (Tetko et al.; mined from patent text by program, amines drawn as free bases though some values may be those of a salt):

SMILES | melting point [°C]
Nc1cc(S(=O)c2ccc(-c3ccccc3)cc2)ccc1Cl (stereo unspecified) | 134 to 137
CC(C)(Oc1c(Br)cc(-c2c3ccccc3c(Br)c3sc4ccccc4c23)cc1Br)C(=O)O | 197 to 199
Nc1ccccc1Nc1ccccn1 | 124 to 125
CC1=C2OCOC2CC(C)(C)C1(O)C[Si](C)(C)C (stereo unspecified) | 63 to 64.5
O=[N+]([O-])C=C1CN=C(c2ccccc2)c2cc(Cl)ccc2N1 | 184 to 186
CC(C)(C)c1cc(C(=S)SC(C)(C)c2ccccc2)cc(C(C)(C)C)c1O | 100 to 104
CCCCc1oc2ccccc2c1C(=O)NCc1ccc2c(Br)c(O)ccc2c1 | 192 to 193
CN(CCCNC(=O)c1c(Cl)ccc2nc3ccccc3nc12)CCCNC(=O)c1c(Cl)ccc2nc3ccccc3nc12 | 206 to 207
c1ccc(-c2nnc(-c3ccc(CN4CCCCCC4)s3)o2)cc1 | 95 to 97
C[C@@H](NC(=O)c1cnn(-c2ccc(Cl)cc2)c1C(C)(C)C)[C@](O)(Cn1cncn1)c1ccc(F)cc1F | 191 to 192
COc1ccc(-c2nn(C(C)C)c(=O)c3ccsc23)cc1 | 124 to 126
COC(=O)COc1ccc(NC(=O)OCCO)cc1 | 85.5 to 87.5
Oc1ccc(-c2ncc3ncc(-c4cccs4)cc3n2)cc1 | 240 to 242
C=CCOc1cccc2nc(C)sc12 | 38 to 39
CNC1=NS(=O)(=O)N=C1NCCSCc1csc(N)n1 | 200 to 201
O=c1cc(-c2ccccc2)oc2cc(OCCCCCCN3CCC(O)CC3)ccc12 | 130 to 131
Nc1ccc2c(c1-c1n[nH]cc1Cl)OC(F)(F)O2 | 195
CCCCc1nnc(-c2ccncc2)n1Cc1ccc(N)cc1 | 63.5 to 64.5
O=C1CO[C@@H]2CCCC[C@H]2O1 (relative stereo) | 20 to 22
COC(=O)C1SC=CC1Sc1ccccc1 (stereo unspecified) | 43 to 45
Cc1nc(-c2ccc(O)cc2)cc(-c2cccc(Br)c2)c1C#N | 214 to 218
COc1cc(COc2ccc(N)nn2)c(Br)c(OC)c1OC | 160 to 161
CCCc1ccc(COc2ccc3c(c2)CCC(CN2CC(C(=O)O)C2)=C3C)c(OC)c1 | 158 to 163
Oc1ccc2c(c1)OC(c1ccc(OCCN3CCCCC3)cc1)c1c-2ccc2cc(O)ccc12 (stereo unspecified) | 158 to 161

SMILES | melting point [°C]
CCCCCCCCCCCCCCCCCNC(=O)OCCOCCOC(=O)N(Cc1ccccn1)C(C)=O | 60 to 61
c1ccc(OCCSCc2nnc(-c3ccc(OCc4ccccn4)cc3)o2)cc1 | 115
CC(C)(C)OC(=O)N1C[C@H](n2ccc(NC(=O)c3ccccc3)nc2=O)C[C@@H]1C(=O)OC(c1ccccc1)c1ccccc1 | 133 to 135
CN(C)CC(=O)N1CCC(c2cc(F)ccc2F)(S(=O)(=O)c2ccc(Cl)cc2)CC1 | 88 to 92
CC(C)(C)OC(=O)N1CCN2C(=O)OC(Cc3ccccc3)(Cc3ccccc3)C2C1 (stereo unspecified) | 188 to 189
CNC(=O)c1snc(-c2cccc(C(F)(F)F)c2)c1N | 113
COc1cc(CCc2c(C=O)ccc(OC)c2OC)cc(OC)c1 | 88 to 89
CCCNC(=O)C(=CN(C)C)C(=O)c1ccccc1Cl | 76 to 78
O=C(O)C1(CSc2ccc(Oc3ccc(Br)cc3)cc2)CCOCC1 | 143
Cc1ccc(Oc2nsnc(Cl)c2=O)cn1 | 155 to 156
Cc1nc2c(c3c1[nH]c1cc(F)ccc13)C(=O)CC(C)(C)C2 | 244 to 246
C#Cc1c2ccccc2nc2c(OC)ccc(OC)c12 | 155 to 157
O=C(NCCO)c1c([N+](=O)[O-])cccc1S(=O)(=O)NCCO | 176 to 178
CS(=O)C1C=Nc2cc(Cl)ccc2C1=O (stereo unspecified) | 247 to 249
COc1nc2cc([N+](=O)[O-])c(C)c(C(=O)NCc3ccccc3)c2nc1OC | 171 to 173
CCOC(=O)Cc1nc2ccccc2n1C | 66 to 67
O=Cc1ccc(OC(=O)c2ccccc2)c([N+](=O)[O-])c1 | 110 to 112
CN1CC(c2cccc(Cl)c2)C(=O)C(c2cccc(Cl)c2)C1 (stereo unspecified) | 140
COc1cccc(-c2c(C)c(NC(=O)CC(C)(C)C)c(C)c3c2OCC3c2ccc(C(C)C)cc2)c1 (stereo unspecified) | 209 to 210
Cc1ccc2c(c1)c(=O)[nH]c(=O)n2CCCCN1CCC(OC(c2ccccc2)c2ccccc2)CC1 | 180 to 182
COC(=O)CSC1NC(=O)c2sccc2-n2cccc21 (stereo unspecified) | 158
CCCCCCCC(=O)c1c(C(=O)CCCCCCC)c(-c2ccccc2)n(-c2ccc(C)cc2)c1-c1ccccc1 | 51 to 53
N#CNC(=NC1CCN(Cc2ccccc2)CC1)N1CCc2ccccc2CC1 | 192 to 194
COc1cc(/C=C/c2cc(OC)c(OC)c(OC)c2)cc(OC)c1OC | 220

SMILES | melting point [°C]
NS(=O)(=O)c1cc2[nH]c(CCc3ccccc3)nc2cc1Cl | 226 to 228
O=[N+]([O-])c1ccc(NCCCn2ccnc2)c(F)c1 | 144
CCOc1nc(N)nc2sc(-c3ccc(F)cc3)cc12 | 142
CCOC(=O)CCC(=O)[C@H](Cc1ccccc1)NC(=O)c1ccccc1 | 112 to 114
COc1cc(C(=O)C#CC(=O)N(C)C)cc(OC)c1OC | 118 to 119
O=C1OCC2Cc3cccc(F)c3OC12 (stereo unspecified) | 75.5 to 77.5
O=C(O)Cc1c(-c2ccco2)nn(-c2ccccc2)c1-c1ccco1 | 199 to 202
CC1(CCS)C(=O)N2CC=CC(C(=O)O)N2C1=O (stereo unspecified) | 113 to 114
CCOC(=O)c1csc(NCc2ccccc2)n1 | 132 to 136
CCOC(=O)c1c(Cl)nc2ccccc2c1CCl | > 260
N#Cc1ccc(NS(=O)(=O)c2ccc(Cl)cc2)cc1 | 182 to 184
COC(=O)c1ccc2c(c1)N(C(=O)N1CCC(c3cccnc3)C1)CCO2 (stereo unspecified) | 61
CNC(=S)NNc1ccnc2c(NC(=O)c3c(Cl)cccc3Cl)cccc12 | > 258
Cn1cc(C2=C(c3cccc4ccccc34)C(=O)NC2=O)c2ccccc21 | 258 to 260
CC(C)(C)[Si](C)(C)OC1CCCc2cnc3cc(OCc4ccccc4[N+](=O)[O-])ccc3c21 (stereo unspecified) | 150 to 152
O=C(c1ccc(Cl)cc1)C(Br)c1ccc(Cl)cc1 (stereo unspecified) | 81.5 to 83
O=C(O)c1ccc2c(c1)C(=O)N(c1ccc(C3(c4ccc(N5C(=O)c6ccc(C(=O)O)cc6C5=O)cc4)c4ccccc4-c4ccccc43)cc1)C2=O | 328 to 331
CCCc1nc(C#N)c(N)n1CC(C)C | 135 to 136
CCc1cc2c(cc1OCc1ccccc1)CCC1C2CCC2(C)C(CCO[Si](c3ccccc3)(c3ccccc3)C(C)(C)C)CCC12 (stereo unspecified) | 48 to 50
O=c1[nH]nc(-c2ccc(Cl)cc2)n1Cc1ccccc1 | 208 to 210
CN(C)Cc1ccc(CSCCNc2ncc(Cc3ccn(Cc4ccccc4)c(=O)c3)c(=O)[nH]2)o1 | 95.5 to 98
CNCCCc1nc2ccccc2[nH]1 | 134 to 136
O=C(O)CN1C(=O)C(=Cc2ccc(OCc3ccccc3)c(OCc3ccccc3)c2)SC1=S | 235 to 238
